How the values were obtained:
HT-1080 cells = experiment: Inhibition of growth of HT-1080 cells (Sytox assay); assay type: cell-based; conditions: Homo sapiens; HT-1080 fibrosarcoma cells, N-ras codon 12 mutation; compound in DMSO, 48 hours exposure
Protocol: The ability of Compounds 1 and 2, dissolved in DMSO, to inhibit the growth of normal and tumorigenic cells was measured. The compounds were assayed by the Sytox primary screen, a phenotypic assay which monitors alterations in cell survival-proliferation as a result of compound treatment. It was devised as high throughput method to identify compounds which specifically alter the growth potential of cells harboring the causative mutations found in cancer patients while not affecting the growth of normal cells. The assay relies upon an inexpensive, simple and reliable readout of a membrane impermeable fluorescent dye (Sytox, from Molecular Probes) which binds to nucleic acid. In healthy cells, no signal is detected because the cell's membrane is intact and the dye will not enter. However, if a cell's membrane is compromised as a result of apoptosis or necrosis, a fluorescent signal proportional to the number of similarly affected cells will be detected. By utilizing a two-step readout (final read in the presence of detergent to permit labeling of all cells), the assay can identify compounds which produce cytostasis, cytotoxicity and/or mitogenesis. The first read or “dead cell” read, provides an estimate of the toxicity of a given compound by indicating the number of dead or dying cells in the culture at the time of assay. The second read or “total cell” read, captures both the cumulative effects of cytoxicity in reducing the size of the cell population as well as any cytostatic or anti-proliferative effects a test compound may exert on the cells in the test population in the absence of toxicity.
Cells were seeded overnight in 96 well plates at densities that without treatment would permit 95% confluence in the wells 72 hours later. The following day, the cells were exposed to test compounds in a dilution series for a period of 48 hours. Following this incubation period, the Sytox reagent was added to the cultures at the manufacturer's recommended concentration and the dead cell fluorescence read was taken. After completion of this measurement, the detergent Saponin was added to each well of the cultures to permeabilize the membranes allowing the Sytox reagent to enter every cell, thereby facilitating measurement of the total number of cells remaining in the culture.
The ability of various compounds of the invention, in DMSO, to inhibit the growth of HT-1080 cells was measured. The HT-1080 cell line used in these experiments was derived from a patient with fibrosarcoma and harbors an activating mutation in the N-ras gene at codon 12. The compound was assayed using the assay described in Example 6. The results of the assay are shown in the table below, where the activity corresponds to the following ranges: A—less than 10 nM, B—10-100 nM, C—100-1000 nM, D—1000-2000 nM, E—greater than 2000 nM.

[1] = system: engineered tumorigenic cells; experiment: Sytox primary screen, inhibition of growth of tumorigenic cells; assay type: cell-based; conditions: Homo sapiens; compound in DMSO, 48 hours exposure, Sytox readout
Protocol: The ability of Compounds 1 and 2, dissolved in DMSO, to inhibit the growth of normal and tumorigenic cells was measured. The compounds were assayed by the Sytox primary screen, a phenotypic assay which monitors alterations in cell survival-proliferation as a result of compound treatment. It was devised as high throughput method to identify compounds which specifically alter the growth potential of cells harboring the causative mutations found in cancer patients while not affecting the growth of normal cells. The assay relies upon an inexpensive, simple and reliable readout of a membrane impermeable fluorescent dye (Sytox, from Molecular Probes) which binds to nucleic acid. In healthy cells, no signal is detected because the cell's membrane is intact and the dye will not enter. However, if a cell's membrane is compromised as a result of apoptosis or necrosis, a fluorescent signal proportional to the number of similarly affected cells will be detected. By utilizing a two-step readout (final read in the presence of detergent to permit labeling of all cells), the assay can identify compounds which produce cytostasis, cytotoxicity and/or mitogenesis. The first read or “dead cell” read, provides an estimate of the toxicity of a given compound by indicating the number of dead or dying cells in the culture at the time of assay. […]

| Compound | IC50 (HT-1080 cells) [nM] | IC50 [1] [nM] |
| --- | --- | --- |
| CCOc1ccccc1-n1c(CN2CCCN(CC)CC2)nc2sccc2c1=O [Compound 7, 3-(2-ethoxyphenyl)-2-((4-ethyl-1,4-diazepan-1-yl)methyl)thieno[2,3-d]pyrimidin-4(3H)-one] | 10 to 100 | – |
| CCOc1ccccc1-n1c(CN2CCNCC2)nc2cnccc2c1=O [Compound 8, 3-(2-ethoxyphenyl)-2-(piperazin-1-ylmethyl)pyrido[3,4-d]pyrimidin-4(3H)-one] | > 2000 | – |
| CCOc1ccccc1-n1c(CN2CCNCC2)nc2c(cnn2-c2ccccc2)c1=O [Compound 3, 5-(2-ethoxyphenyl)-1-phenyl-6-(piperazin-1-ylmethyl)-1H-pyrazolo[3,4-d]pyrimidin-4(5H)-one] | > 2000 | – |
| CCOc1ccccc1-n1c(CN2CCNCC2)nc2sccc2c1=O [Compound 4, 3-(2-ethoxyphenyl)-2-(piperazin-1-ylmethyl)thieno[2,3-d]pyrimidin-4(3H)-one] | 100 to 1000 | – |
| CCOc1ccccc1-n1c(C(C)N2CCN(C(=O)COc3ccc(Cl)cc3)CC2)nc2c(cnn2-c2ccccc2)c1=O (stereo not drawn) [Compound 2, 6-(1-(4-(2-(4-chlorophenoxy)acetyl)piperazin-1-yl)ethyl)-5-(2-ethoxyphenyl)-1-phenyl-1H-pyrazolo[3,4-d]pyrimidin-4(5H)-one] | – | ~10000 |
| CCOc1ccccc1-n1c(C(C)N2CCN(C(=O)COc3ccc(Cl)cc3)CC2)nc2ccncc2c1=O (stereo not drawn) [Compound 1, 2-(1-(4-(2-(4-chlorophenoxy)acetyl)piperazin-1-yl)ethyl)-3-(2-ethoxyphenyl)pyrido[4,5-d]pyrimidin-4(3H)-one] | – | ~10000 |
| CCOc1ccccc1-n1c(CN2CCCN(C)CC2)nc2cnccc2c1=O [Compound 9, 3-(2-ethoxyphenyl)-2-((4-methyl-1,4-diazepan-1-yl)methyl)pyrido[3,4-d]pyrimidin-4(3H)-one] | > 2000 | – |
| CCOc1ccccc1-n1c(CN2CCCNCC2)nc2sccc2c1=O [Compound 5, 2-((1,4-diazepan-1-yl)methyl)-3-(2-ethoxyphenyl)thieno[2,3-d]pyrimidin-4(3H)-one] | < 10 | – |
| CCOc1ccccc1-n1c(CN2CCCN(C)CC2)nc2sccc2c1=O [Compound 6, 3-(2-ethoxyphenyl)-2-((4-methyl-1,4-diazepan-1-yl)methyl)thieno[2,3-d]pyrimidin-4(3H)-one] | < 10 | – |

Source: patent publication US20090170834A1, “Fused Pyrimidones and Thiopyrimidones, and Uses Thereof” (PROLEXYS PHARMACEUTICALS, INC., priority 2005, published 2009)
